Assays:
Assay type in all cases: cell-based
[1] = tested on: healthy human neonatal fibroblasts; test: Anti-NANOG immunostaining of cells dissociated from neonatal fibroblast spheroids; conditions: spheroids day 20 dissociated with Accutase, 24 h further culture; nuclei of some cells, majority NANOG-negative
Procedure: To detect stem cells induced in fibroblast spheroids, immunostaining with a fluorescent dye-labeled antibody was used, and stem cells in the spheroid-forming cells were detected. An aqueous solution of the polypeptide represented by formula (1) (0.125%) (cell culture supplement) was added to a commercial polystyrene-made 96-well round-bottom culture vessel (Nunclon Delta 96U Bottom, Thermo Fisher Scientific) at 100 μL/well to complete coating treatment with the cell culture supplement in the same manner as in Example 2. Fibroblasts were maintained and cultured in a serum-free medium (Fujifilm Wako Pure Chemical Corporation, DMEM/F12 medium, human serum albumin recombinant 0.5 mg/mL, human transferrin recombinant 10 μg/mL, basic-FGF 5 ng/ml, and insulin 2.5 μg/mL). Fibroblasts floating in the medium were seeded in the culture vessel coated with the cell culture supplement at 2×10^4 cells/well/100 μL and cultured at 37° C. under 5% CO2 conditions. On day 20 after the start of culture, spheroids were aseptically collected from the 96-well round-bottom culture vessel. […] For the fluorescence-labeled antibody, NL493 fluorescent dye-labeled anti-NANOG antibody (fluorescent green, R&D systems) was used, and observation was performed with a fluorescence microscope.

[2] = tested on: healthy human adult skin fibroblasts; test: Real-time PCR of stem cell and triploblastic marker genes in adult skin fibroblast spheroids; conditions: day 20 of 3D spheroid culture, ΔΔCt
Procedure: An aqueous solution of the polypeptide represented by formula (1) (0.125%) (cell culture supplement) was added to a commercial polystyrene-made 96-well round-bottom culture vessel (Nuncion Delta 96U Bottom, Thermo Fisher Scientific) and allowed to stand at 4° C. for 24 hours. The cell culture supplement solution was then removed and the coated cell culture supplement was dried in a dryer at 37° C. for 96 hours to complete the cell culture supplement coating process. Healthy human adult skin fibroblasts (Lonza, normal human dermal fibroblast-adult, referred to as “adult skin fibroblasts” below) were maintained and cultured in a serum-free medium (Fujifilm Wako Pure Chemical Corporation; DMEM/F12 medium, human serum albumin recombinant 0.5 mg/mL, human transferrin recombinant 10 μg/mL, basic-FGF 5 ng/ml, and insulin 2.5 μg/mL). Adult skin fibroblasts floating in 100 μL of the medium were seeded in the 96-well round-bottom culture vessel coated with the cell culture supplement at 2×10^4 cells/well and cultured at 37° C. under 5% CO2 conditions.
The detection of stem cell marker genes was performed by analysis of the expression of mRNA by real-time PCR. Specifically, on day 20 from the start of culture, spheroids were collected in a 15-mL centrifuge tube and centrifuged, followed by washing the cells with phosphate buffered saline(−) and collecting the cells. Cells two-dimensionally cultured in a culture vessel not treated with the cell culture supplement (control) (day 0) were washed with PBS (−) after removal of the medium. The cells were detached from the plate with 0.05% trypsin-EGTA and dissociated, followed by collecting the cells in a 15-mL centrifuge tube and washing again with PBS(−) again. A NucleoZOL (Macherey-Nagel) reagent was added to the spheroids, and RNA was extracted according to the protocol recommended by the reagent manufacturer and determined to be template RNA. For real-time PCR analysis, PCR probes from QuantiFast Probe RT-PCR Kits (QIAGEN; No. 204454) and TaqMan Gene Expression Assay Probe (Thermo Fisher Scientific) were used. PCR analysis was performed with a Rotor-Gene Q (QIAGEN) apparatus. For detection of genes, three transcription factors were used as probes for detecting the expression of undifferentiated stem cell marker genes: SOX2 (sex-determining region Y-box 2), OCT4 (octamer binding transcription factor 4), and NANOG (homeodomain transcription factor); and β-actin was used as an endogenous control gene (FIG. 13).
To determine whether stem cells induced in spheroids can differentiate into primordial three germ layers, the expression of triploblastic marker genes was examined by real-time PCR. For probes for detection, the following four triploblastic marker genes were used: SOX17 (sex-determining region Y-box 17; endoderm), GATA6 (GATA family of zinc finger transcription factors; endoderm), HAND1 (heart-and neural crest derivatives-expressed protein 1; mesoderm), and SOX1 (HMG-box (high mobility group) DNA-binding domain; ectoderm). For an endogenous control gene, TaqMan Gene Expression Assay Probe (ß-actin) was used (FIG. 14). In the gene expression analysis, relative quantification was performed according to the ΔΔCt method (Delta Delta Ct method). The results of analysis according to the ΔΔCt method show the amount of a gene expressed by control cells under the conditions of “no cell culture supplement, flat-bottom 2D growth, day 0” as “1.0” in relative terms, and the increase rate in “the expression level in spheroid proliferation on day 20” was determined by comparison.

[3] = tested on: canine tubule-derived MDCK II cells; test: Inhibition of induction of apoptosis, Caspase-3/7 activity assay in spheroids; conditions: U- and V-bottom 96-well plates coated with 0.5% solution diluted 4-fold and 8-fold; day 3 and day 6; concentration-dependent, more pronounced on day 6
Procedure: An aqueous solution of the polypeptide represented by formula (1) was added in two different concentrations (prepared by diluting a 0.5% solution 4-fold and 8-fold) at 100 μL/well and 200 μL/well respectively to two 96-well cell culture plates with different bottom shapes (plate #163320 with a U-shaped bottom; Corning, NY, USA, and plate #277143 with a V-shaped bottom; Thermo Fisher Scientific, MA, USA) and allowed to stand overnight at 4° C. Thereafter, the excess cell culture supplement was removed, and the remaining solution was dried in a clean bench for about 6 hours to complete the treatment with the cell culture supplement. […] After three days and six days, the apoptosis activity per well was measured by using a Caspase activity assay kit (Apo-ONE Homogeneous Caspase-3/7 Assay kit; Promega, WI, USA). […] Thereafter, 100 μL of the culture fluid was transferred to a black 96-well cell culture plate (#237105; Thermo Fisher Scientific, MA, USA), and the value of fluorescence at 590 nm (excitation light at 560 nm) was measured with a plate reader. The value determined by subtracting the value for reagent-only with no cells (blank value) from a measured value was considered to be the measured value for each day of culture, and the values compared to those of the plate not coated with the aqueous solution of the polypeptide represented by formula (1) (control) were plotted.

In the case of “(Pro-Hyp-Gly)n [cell culture supplement]”, the “nuclear NANOG protein in cells dispersed from spheroids” value [1] is reported as “strong NANOG antibody-positive green fluorescence”, the “NANOG gene expression level (increase vs control)” value ([2]; 2D control cells = 1.0) is reported as 50.5 fold and the “OCT4 gene expression level (increase vs control)” value ([2]; 2D control cells = 1.0) is reported as 13.0 fold. For the same substance, the “SOX2 gene expression level (increase vs control)” value ([2]; 2D control cells = 1.0) was 9.4 fold, the “GATA6 gene expression level (increase vs control)” value ([2]; control cells = 1.0) was 2.2 fold and the “HAND1 gene expression level (increase vs control)” value ([2]; control cells = 1.0) was 33.9 fold. For the same substance, the “SOX1 gene expression level (increase vs control)” value ([2]; control cells = 1.0) was 7.1 fold, the “SOX17 gene expression level (increase vs control)” value ([2]; control cells = 1.0) was 11.4 fold and the “apoptosis (Caspase-3/7 activity) compared with uncoated plate” value [3] was “inhibited”.
